Measurements: PubChem BioAssay AID1159565 (GlaxoSmithKline (GSK), 2015)
The source made the active and inactive calls. How the calls were made is not given here.

Tested on: T. cruzi-infected H9C2 cardiomyocytes, high-content imaging
Assay: intracellular T. cruzi amastigote inhibition, imaging, H9C2 host cardiomyocytes, host toxicity (AID 1159565);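 further: infected cells incubated 72 h after plating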
[1] = measured here: H9C2 host cell toxicity
[2] = measured here: amastigotes per cell

SMILES: CCn1c(NC(=O)Cc2ccc(F)cc2)nc2ccccc21
- IC50: 7.9 µM
- IC50 [1]: > 50 µM
- IC50 [2]: 4 µM

SMILES: CCN(C)Cc1ccc(N2CCC(NS(=O)(=O)c3ccc4c(c3)CCO4)CC2)nc1
- IC50: 1.3 µM
- IC50 [1]: > 50 µM
- IC50 [2]: 1 µM

SMILES: O=C(c1ccc(O)c(Cl)c1)N1CCN(c2cnccn2)CC1
- IC50: > 50 µM (inactive)
- IC50 [1]: > 50 µM
- IC50 [2]: 10 µM

SMILES: Cc1cc(Br)cc(C(=O)c2c(C(C)C)c(=O)[nH]c(=O)n2Cc2ccnc(N)c2)c1
- IC50: 0.32 µM
- IC50 [1]: > 50 µM
- IC50 [2]: 0.25 µM

SMILES: Cc1nn2c(NCCCO)c3c(nc2c1-c1cccs1)CCC3
- IC50: 50 µM
- IC50 [1]: > 50 µM
- IC50 [2]: 5 µM

SMILES: O=c1cc(CSc2ccc(Cl)cc2)nc(-c2ccccn2)[nH]1
- IC50: 1.6 µM
- IC50 [1]: 3.2 µM
- IC50 [2]: 0.79 µM

SMILES: N#Cc1cccc(CN2CCC(N(Cc3cccnc3)C(=O)c3cc(F)c(F)cc3F)CC2)c1
- IC50: 0.4 µM
- IC50 [1]: > 50 µM
- IC50 [2]: 0.32 µM

SMILES: COc1ccc(S(=O)(=O)NC(C)C)cc1Nc1ncc(-c2cccc(F)c2)cn1
- IC50: 0.4 µM
- IC50 [1]: > 50 µM
- IC50 [2]: 0.32 µM

SMILES: O=C(NCCc1ccn(-c2ccccc2)n1)C1CCCCC1
- IC50: 1 µM
- IC50 [1]: > 50 µM
- IC50 [2]: 1 µM

SMILES: O=C1OCc2ccc(Nc3nccc(-c4cnn5ncccc45)n3)cc21
- IC50: 0.063 µM
- IC50 [1]: 0.025 µM
- IC50 [2]: 0.032 µM

SMILES: Fc1ccc(Nc2nc(-c3ccccn3)cs2)cc1
- IC50: 5 µM
- IC50 [1]: 1 µM
- IC50 [2]: 5 µM

SMILES: O=C(Cn1cnc([N+](=O)[O-])n1)Nc1ccc(Cl)cc1C(=O)c1ccccc1
- IC50: 1.3 µM
- IC50 [1]: > 50 µM
- IC50 [2]: 0.32 µM

SMILES: c1ccc2sc(Nc3nc4ncccc4[nH]3)nc2c1
- IC50: 1.6 µM
- IC50 [1]: 1 µM
- IC50 [2]: 1.3 µM

SMILES: O=C(CSc1nnc(-c2ccc3c(c2)OCO3)o1)N(Cc1ccco1)CC(F)(F)F
- IC50: 3.2 µM
- IC50 [1]: > 50 µM
- IC50 [2]: 2.5 µM

SMILES: CNc1nc(C)nc(N2CCc3cc(C(=O)NCc4ccc(-c5ccn[nH]5)cc4Cl)ccc32)n1
- IC50: > 50 µM (inactive)
- IC50 [1]: 20 µM
- IC50 [2]: > 50 µM

SMILES: CCc1cccc(CC)c1-n1c(SCC(=O)N2CC(=O)Nc3ccccc32)nnc1-c1cccnc1
- IC50: 32 µM
- IC50 [1]: > 50 µM
- IC50 [2]: 25 µM

SMILES: Cn1ccnc1CN1CCc2[nH]cnc2C1c1ccccc1OCc1ccccc1 (centres undefined)
- IC50: > 50 µM (inactive)
- IC50 [1]: > 50 µM
- IC50 [2]: > 50 µM

SMILES: Cc1cc(Nc2ccc(C#N)c(Cl)c2C)n[nH]1
- IC50: > 50 µM (inactive)
- IC50 [1]: > 50 µM
- IC50 [2]: 20 µM

SMILES: CCOc1ccc(CN(C)Cc2nc(N)nc(Nc3ccc(C)cc3)n2)cc1
- IC50: 5 µM
- IC50 [1]: 3.2 µM
- IC50 [2]: 5 µM

SMILES: Cc1cc(C)c(C#N)c(SCC(=O)c2ccc3c(c2)OCO3)n1
- IC50: 0.79 µM
- IC50 [1]: > 50 µM
- IC50 [2]: 0.4 µM

SMILES: O=C(CN1CCC2(O)CCCCC2C1c1ccc2c(c1)OCO2)Nc1ccc(Cl)cc1Cl (centres undefined)
- IC50: 5 µM
- IC50 [1]: > 50 µM
- IC50 [2]: 3.2 µM

SMILES: CCC1Oc2cc(S(=O)(=O)N(C)CC(=O)N3CCc4ccccc4C3)c(C)cc2NC1=O (centres undefined)
- IC50: 0.25 µM
- IC50 [1]: > 50 µM
- IC50 [2]: 0.25 µM

SMILES: CCC(=O)Nc1ccc(C(=O)Nc2ccccc2-c2ccccc2)cc1
- IC50: 0.5 µM
- IC50 [1]: > 50 µM
- IC50 [2]: 0.25 µM

SMILES: COc1ccnc2[nH]cc(-c3cc(C(=O)N[C@H](CO)c4ccccc4)co3)c12
- IC50: 20 µM
- IC50 [1]: 0.32 µM
- IC50 [2]: 7.9 µM

SMILES: CN(C)S(=O)(=O)c1cccc(CSc2nnc(-c3ccc4c(c3)OCO4)o2)c1
- IC50: 0.1 µM
- IC50 [1]: > 50 µM
- IC50 [2]: 0.05 µM

SMILES: O=C(NCCc1cccnc1)c1ccc(-c2ccccc2F)o1
- IC50: 0.2 µM
- IC50 [1]: > 50 µM
- IC50 [2]: 0.2 µM

SMILES: c1ccc(Nc2nc(-c3ccccn3)cc(N3CCOCC3)n2)cc1
- IC50: > 50 µM (inactive)
- IC50 [1]: 0.63 µM
- IC50 [2]: 25 µM

SMILES: O=C(NC(CO)c1ccc(F)cc1)c1ccc(-c2c[nH]c3ncccc23)s1 (centres undefined)
- IC50: 16 µM
- IC50 [1]: 4 µM
- IC50 [2]: 13 µM
